The results in this text go back to patent publication US5512574A, “Quinuclidine and azabicyclo 2.2.1! heptane pyrazinyl ethers as muscarinic agonists” (American Home Products Corporation, priority 1995, dated 1996).

Read-outs that look alike come from different tables or passages of the source.

In assay [1] the target is T1, M1 acetylcholine receptors (Homo sapiens, UniProt P11229).
T1 sequence (P11229 1-460): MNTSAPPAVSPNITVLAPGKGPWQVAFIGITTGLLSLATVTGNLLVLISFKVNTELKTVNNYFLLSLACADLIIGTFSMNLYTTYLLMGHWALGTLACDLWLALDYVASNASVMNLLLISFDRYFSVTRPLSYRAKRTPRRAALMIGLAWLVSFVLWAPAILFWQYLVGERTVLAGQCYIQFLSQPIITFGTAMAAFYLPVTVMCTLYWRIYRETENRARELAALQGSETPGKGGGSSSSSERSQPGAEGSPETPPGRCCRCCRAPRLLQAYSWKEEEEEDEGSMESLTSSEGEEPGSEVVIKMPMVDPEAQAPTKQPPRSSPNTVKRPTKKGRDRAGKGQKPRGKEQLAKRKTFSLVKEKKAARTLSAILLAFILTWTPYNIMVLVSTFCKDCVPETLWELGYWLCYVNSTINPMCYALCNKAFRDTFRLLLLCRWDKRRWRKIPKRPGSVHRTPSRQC
Briefly: stimulation of phosphoinositide (PI) hydrolysis in CHO cells expressing M1 acetylcholine receptors. Format: cell-based. The note with it: for Emax: CHO, 1 h; for EC50: read-out: m1 agonism [P.I.] EC50; for m1 CHO @ 30 × Ki % Carbachol / m1 CHO % Carbachol (at Ki): PI hydrolysis, 60 min; for m1 CHO @ 30 × Ki % Carbachol: at 30 × Ki. As for the experimental part:
(§1) The tubes are incubated for one hour at 37° C. The reaction is quenched with chloroform and the phosphatidyl inositols are extracted with methanol and chloroform. Phase separation is assured with the addition of methanol and water followed by centrifugation. The tritiated inositol phosphates are recovered on BioRad AG 1-X8 anion exchange resin in the formate cycle. After washing the resin with water and myo-inositol, the inositol phosphates are eluted with ammonium formate/formic acid, collected and subjected to liquid scintillation spectroscopy.
(§2) Cloned human receptors in CHO cells were used in these studies.

Assay [2] has as its target T2, m1 muscarinic receptor (Homo sapiens, UniProt P11229).
T2 sequence (P11229 1-460): T1 sequence (P11229 1-460)
Briefly: biochemical. The format is binding.

Assay [3] has as its target T3, m2 muscarinic receptor (Homo sapiens, UniProt P08172).
T3 sequence (P08172 1-466): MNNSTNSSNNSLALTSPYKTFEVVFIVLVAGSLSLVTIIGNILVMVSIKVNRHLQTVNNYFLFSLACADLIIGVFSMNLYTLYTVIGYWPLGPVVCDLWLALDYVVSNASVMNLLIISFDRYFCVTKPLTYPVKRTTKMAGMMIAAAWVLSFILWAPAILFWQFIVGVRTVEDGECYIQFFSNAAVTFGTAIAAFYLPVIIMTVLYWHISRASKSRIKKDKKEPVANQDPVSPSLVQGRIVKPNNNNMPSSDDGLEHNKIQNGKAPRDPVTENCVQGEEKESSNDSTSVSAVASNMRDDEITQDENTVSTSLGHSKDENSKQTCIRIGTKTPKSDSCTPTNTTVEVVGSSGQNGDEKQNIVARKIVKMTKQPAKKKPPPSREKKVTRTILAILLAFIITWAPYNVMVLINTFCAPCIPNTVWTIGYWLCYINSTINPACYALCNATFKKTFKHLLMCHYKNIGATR
Nature of the assay: biochemical. The format is binding.

Assay [4] addresses M1 acetylcholine receptors (Homo sapiens, UniProt P11229). Nature of the assay: stimulation of phosphoinositide (PI) hydrolysis in CHO cells expressing M1 acetylcholine receptors. The format is cell-based. As for the experimental part: as §1, §2
The target of assay [5] is m1 muscarinic receptor (Homo sapiens, UniProt P11229). Nature of the assay: biochemical. Format: binding. The source holds these as a separate data set.
Assay [6] concerns the target T3, m2 muscarinic receptor. Briefly: m2 agonism (cAMP) / functional selectivity. The settings on record: for EC50: cAMP, m2; for Functional Selectivity-m2/m1: ratio of m2 (cAMP) EC50 to m1 (PI) EC50. Format: cell-based.
From the text: Such diseases include presenile and senile dementia (also known as Alzheimer's Disease and Senile Dementia of the Alzheimer Type, respectively), Huntington's Chorea, Tardive Dyskinesia, Hyperkinesia, Mania and Tourette's Syndrome. Alzheimer's Disease is a slowly progressive neurological disorder characterized by deficits in cognitive function including memory, attention, language and visual perception capabilities.
as §2

Where [7] appears, read: read-out: m1 CHO @ 30 × Ki % Carbachol, PI hydrolysis, m1 CHO, at 30 × Ki, percentage of mean carbachol value.
[8] abbreviates: m1, cloned human receptors in CHO cells, read-out: [3H]QNB Binding Ki(μM) m1.
[9] abbreviates: read-out: [3H]QNB Binding Ki(μM) m2.
Where [10] appears, read: m2, cloned human receptors in CHO cells, read-out: [3H]QNB Binding Ki(μM) m2.
[11] abbreviates: read-out: m1 CHO % Carbachol (at Ki), PI hydrolysis, m1 CHO, at Ki, percentage of mean carbachol value.
[12] abbreviates: read-out: m1 CHO @ 30 × Ki % Carbachol.
Where [13] appears, read: percentage of mean carbachol value.
The mark [14] stands for this setting: read-out: m1 CHO % Carbachol (at Ki).

For the molecule `CCCCCCOc1nccnc1O[C@H]1CN2CC[C@@H]1C2` (relative stereo) [Example 1, (±)-(endo)-3-(3-Hexyloxy-pyrazin-2-yloxy)-1-aza-bicyclo 2.2.1!heptane], the Emax in assay [1] (setting [7]) worked out at 102%. In addition, the Ki on m1 muscarinic receptor [2] (setting [8]) is 0.03 µM; at m2 muscarinic receptor [3] (setting [9]), 0.02 µM.
Take `CCCCCCSc1nccnc1O[C@H]1CN2CC[C@@H]1C2` (relative stereo) [Example 2, (endo)-3-(3-Hexylsulfanyl-pyrazin-2-yloxy)-1-aza-bicyclo 2.2.1!heptane]: the Emax in assay [1] (setting [7]) was 97.1%. For the same molecule, the Ki at m1 muscarinic receptor [2] (setting [8]) amounted to 0.0067 µM; at m2 muscarinic receptor [3] (setting [10]), 0.013 µM.
For the molecule `CCCCCCSc1nccnc1O[C@@H]1CN2CC[C@@H]1C2` (relative stereo) [Example 6, (exo)-3-(3-Hexylsulfanyl-pyrazin-2-yloxy)-1-azabicyclo 2.2.1!heptane], the Emax in assay [1] (setting [11]) amounted to 104%. In addition, the results for the Ki at m1 muscarinic receptor [2] (setting [8]) and at m2 muscarinic receptor [3] (setting [10]) were 0.123 µM and 0.088 µM, respectively.
As to `CCCCCCOc1nccnc1S[C@@H]1CN2CC[C@@H]1C2` (relative stereo) [Example 11, (exo)-3-(3-Hexyloxy-pyrazin-2-ylsulfanyl)-1-azabicyclo 2.2.1!heptane], the Emax in assay [1] (setting [11]) came out at 41.6%. Further, the inhibition constant (Ki) on m1 muscarinic receptor [2] (setting [8]) turned out to be 0.292 µM.
`CCCCCCSc1nccnc1S[C@@H]1CN2CC[C@@H]1C2` (relative stereo) [Example 12, (exo)-3-(3-Hexylsulfanyl-pyrazin-2-ylsulfanyl)-1-azabicyclo-2.2.1!heptane]: in assay [1] (setting [12]), the Emax amounted to 62%. In addition, the inhibition constant (Ki) on m1 muscarinic receptor [2] (read-out: [3H]QNB Binding Ki(μM) m1) came out at 0.03 µM; on m2 muscarinic receptor [3] (setting [9]), 0.064 µM.
Consider `CCCCCCOc1nccnc1O[C@H]1CN2CC[C@@H]1C2` (single isomer, unassigned), for which, in assay [4], the EC50 amounted to 5.5 nM. For the same molecule, affinity at m1 muscarinic receptor [5] was put at a Ki of 32 nM.
As to `CCCCCCSc1nccnc1O[C@H]1CN2CC[C@@H]1C2` (single isomer, unassigned) [2(+), (+)-(endo)-3-(3-hexylsulfanyl-pyrazin-2-yloxy)-1-aza-bicyclo 2.2.1!heptane], the Emax in assay [1] (setting [7]) was determined as 31.1%. Further, the Ki at m1 muscarinic receptor [2] (setting [8]) was 0.027 µM; at m2 muscarinic receptor [3] (setting [10]), 0.063 µM.
For `CCCCCCSc1nccnc1O[C@H]1CN2CC[C@@H]1C2` (single isomer, unassigned) [Example 2(-), (-)-(endo)-3-(3-hexylsulfanyl-pyrazin-2-yloxy)-1-aza-bicyclo 2.2.1!heptane], in assay [1] (setting [11]), the Emax was 46.5%. The EC50 in assay [1] was determined as 0.4 nM. Moreover, at m2 muscarinic receptor [6], the EC50 was found to be 16 nM and the “Functional Selectivity-m2/m1” value is on record as 40. Further, on m2 muscarinic receptor [3] (setting [10]), the Ki is 0.0045 µM.
As for `CCCCCCOc1nccnc1O[C@H]1CN2CC[C@@H]1C2` (single isomer, unassigned) [Example 4], on m2 muscarinic receptor [3] (setting [9]), the Ki amounted to 0.024 µM.
On to `CCCCCCOc1nccnc1O[C@H]1CN2CC[C@@H]1C2` (single isomer, unassigned) [Example 5, (+)-endo-3-(3-Hexyloxy-pyrazin-2-yloxy)-1-azabicyclo 2.2.1!heptane], for which the “m1 CHO @ 30 × Ki % Carbachol” value in assay [1] (setting [13]) is listed as 51%. The Ki at m1 muscarinic receptor [2] (setting [8]) is 0.083 µM; on m2 muscarinic receptor [3] (setting [9]), 0.071 µM.
Turning to `CCCCCCSc1nccnc1O[C@@H]1CN2CC[C@@H]1C2` (single isomer, unassigned) [Example 7, (+)-exo-3-(3-Hexylsulfanyl-pyrazin-2-yloxy)-1-azabicyclo 2.2.1!heptane], the “m1 CHO % Carbachol (at Ki)” value in assay [1] (setting [13]) worked out at 107.3%. Moreover, in assay [1], the EC50 came to 10.3 nM. Further, on m2 muscarinic receptor [6], a half-maximal response (EC50) required 2400 nM and the “Functional Selectivity-m2/m1” value was determined as 240. Also, on m2 muscarinic receptor [3] (setting [10]), the Ki stood at 0.059 µM.
Turning to `CCCCCCSc1nccnc1O[C@@H]1CN2CC[C@@H]1C2` (single isomer, unassigned) [Example 8, (-)-(exo)-3-(3-Hexylsulfanyl-pyrazin-2-yloxy)-1-azabicyclo 2.2.1!heptane], the “m1 CHO % Carbachol (at Ki)” value in assay [1] (setting [13]) worked out at 44.2%. Further, on m2 muscarinic receptor [3] (setting [10]), the Ki is 0.008 µM.
On to `CCCCCCOc1nccnc1O[C@@H]1CN2CC[C@@H]1C2` (single isomer, unassigned) [Example 9, (-)-(exo)-3-(3-Hexyloxy-pyrazin-2-yloxy)-1-azabicyclo 2.2.1!heptane], for which, in assay [1] (setting [13]), the “m1 CHO @ 30 × Ki % Carbachol” value is listed as 56%. At m2 muscarinic receptor [3] (setting [9]), the Ki turned out to be 0.774 µM.
On the same counts, the results for `CCCCCCOc1nccnc1O[C@@H]1CN2CC[C@@H]1C2` (single isomer, unassigned) [Example 10, (+)-(exo)-3-(3-Hexyloxy-pyrazin-2-yloxy)-1-azabicyclo 2.2.1!heptane] are 9% and 0.149 µM.
As for `CCCCCCSc1nccnc1SC1CN2CCC1CC2` (stereo not shown) [Example 13, 3-(3-Hexylsulfanyl-pyrazin-2-ylsulfanyl)-1-azabicyclo 2.2.2!octane], the Emax in assay [1] (setting [12]) turned out to be 45.9%. The molecule further gave a Ki at m1 muscarinic receptor [2] of 0.029 µM.
Take `CCCCCCOc1nccnc1SC1CN2CCC1CC2` (stereo not shown) [Example 14, 3-(3-Hexyloxy-pyrazin-2-ylsulfanyl)-1-azabicyclo 2.2.2!octane]: the Emax in assay [1] (setting [14]) worked out at 29.5%. The molecule further displayed a Ki on m1 muscarinic receptor [2] of 0.076 µM.
Regarding `CCCCCCOc1nccnc1OC1CN2CCC1CC2` (stereo not shown) [Example 15], the Emax in assay [1] (setting [14]) is 59.6%. Besides, the Ki at m1 muscarinic receptor [2] was determined as 0.14 µM; at m2 muscarinic receptor [3] ([3H]QNB Binding Ki(μM) m2, m2, cloned human receptors in CHO cells), 0.124 µM.

In general, Ki refers to the equilibrium dissociation constant of an inhibitor or competing ligand from its target. By EC50 is commonly meant the concentration needed to bring the measured effect to its halfway point.
